From patent US8324384B2, “Glucagon receptor antagonist compounds, compositions containing such compounds and methods of use” (Merck Sharp & Dohme Corp., priority 2010, dated 2012)
pIC50: −log10 of the molar value.

Biological target: T1, cloned human glucagon receptor (Homo sapiens, UniProt P47871)
T1 construct: expressed in transfected cells; cell membranes used
Experiment: Glucagon Receptor Binding Assay (125I-Glucagon, SPA, CHO cell membranes)
Settings: for pIC50: inhibition of 125I-Glucagon binding to membranes of CHO cells expressing human glucagon receptor, more active isomer of indicated compounds; for potency as glucagon receptor antagonist relative to the other diastereomer: racemic diastereomers of Example 5 separated by reverse-phase HPLC, assay not given
Method: Glucagon Receptor Binding Assay
A stable CHO (Chinese hamster ovary) cell line expressing cloned human glucagon receptor was maintained as described (Chiechi, et. al. J Biol Chem 272, 7765-9(1997); Cascieri, et. al. J Biol Chem 274, 8694-7(1999)). To determine antagonistic binding affinity of compounds, 0.001-0.003 mg of cell membranes from these cells were pre-incubated with 0.100 mg WGA-coated PVT SPA beads (Amersham) for 20 minutes at room temperature in 25 μL of a buffer containing 50 mM Tris-HCl (pH 7.5), 5 mM MgCl2, 2 mM EDTA, 0.1% BSA and 3% glycerol in Costar 384 well plates with clear bottoms (#3706). Next, 25 μL of ^125I-Glucagon (New England Nuclear, MA) (1×10^−14 mol per well) and either 1 μL solutions of test compounds or 0.001 mM unlabeled glucagon or DMSO were added and mixed. After 4-12 hours incubation at room temperature, the radioactivity bound to the cell membranes was determined in a radioactive emission detection counter (Wallac-Microbeta). Data were analyzed using the Data Analyzer software program of Merck & Co., Inc. The IC50 values were calculated using non-linear regression analysis assuming single-site competition.

T1 sequence (P47871 26-477): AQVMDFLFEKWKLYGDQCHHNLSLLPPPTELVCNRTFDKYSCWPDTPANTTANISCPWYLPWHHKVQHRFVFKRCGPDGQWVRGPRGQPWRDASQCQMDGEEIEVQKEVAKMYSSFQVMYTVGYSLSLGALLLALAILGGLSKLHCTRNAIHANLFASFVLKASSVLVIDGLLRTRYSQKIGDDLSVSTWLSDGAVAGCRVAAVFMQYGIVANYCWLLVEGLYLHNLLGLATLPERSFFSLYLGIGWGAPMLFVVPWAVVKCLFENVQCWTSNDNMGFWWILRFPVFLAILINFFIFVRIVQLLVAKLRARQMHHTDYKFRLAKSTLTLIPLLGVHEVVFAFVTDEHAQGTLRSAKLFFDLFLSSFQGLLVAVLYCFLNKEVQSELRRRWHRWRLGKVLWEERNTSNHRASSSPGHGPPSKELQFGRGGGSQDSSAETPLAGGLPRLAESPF

Row | pIC50 | potency as glucagon receptor antagonist relative to the other diastereomer | SMILES
1 | 8.82 |  | CCCC(c1ccc(C(=O)NCCC(=O)O)cc1)C(C(=O)N1CCc2cc(OC)ccc2C1)c1ccc(Cl)cc1 (single isomer, unassigned) [Example 79]
2 | 9.40 |  | CCCC(c1ccc(C(=O)NCCC(=O)O)cc1)C(C(=O)N1Cc2ccc(-c3ccc(OC)nc3)cc2C1)c1cc(F)cc(F)c1 (stereo not shown) [Example 9]
3 | 8.49 |  | CCCC(c1ccc(C(=O)NCCC(=O)O)cc1)C(C(=O)N1CCc2ccc(-c3ccc(C)cc3)cc2C1)c1ccc(Cl)cc1 (single isomer, unassigned) [Example 88]
4 |  | less potent | CCCC(c1ccc(C(=O)Nc2nnn[nH]2)cc1)C(C(=O)N1Cc2ccc(OC(F)(F)F)cc2C1)c1ccc(Cl)cc1 (single isomer, unassigned) [Example 5 Minor isomer]
5 | 8.96 |  | CCCC(c1ccc(C(=O)NCCS(=O)(=O)O)cc1)C(C(=O)N1Cc2ccc(C(F)(F)F)cc2C1)c1ccc(Cl)cc1 (stereo not shown) [Example 107]
6 | 9.22 |  | CCCC(c1ccc(C(=O)NCCC(=O)O)cc1)C(C(=O)N1Cc2ccc(C)cc2C1)c1ccc(Cl)cc1 (stereo not shown) [Example 37]
7 | 7.32 |  | CCCC(c1ccc(C(=O)NCCC(=O)O)cc1)C(C(=O)N1CCCc2ccccc21)c1ccc(Cl)cc1 (single isomer, unassigned) [Example 2, N-(4-{1-[1-(4-chlorophenyl)-2-(3,4-dihydroquinolin-1(2H)-yl)-2-oxoethyl]butyl}benzoyl)-β-alanine]
8 | 8.23 |  | CCCC(c1ccc(C(=O)NC(C)CC(=O)O)cc1)C(C(=O)N1Cc2ccc(OC(F)(F)F)cc2C1)c1ccc(Cl)cc1 (mixture of isomers) [Example 101]
9 | 8.66 | more potent | CCCC(c1ccc(C(=O)Nc2nnn[nH]2)cc1)C(C(=O)N1Cc2ccc(OC(F)(F)F)cc2C1)c1ccc(Cl)cc1 (stereo not shown) [Example 5]
10 | 8.26 |  | CCCC(c1ccc(C(=O)NCCC(=O)O)cc1)C(C(=O)N1Cc2ccc(C#N)cc2C1)c1ccc(Cl)cc1 (stereo not shown) [Example 36]
11 | 9.10 |  | CCCC(c1ccc(C(=O)NCCC(=O)O)cc1)C(C(=O)N1Cc2cccc(C(F)(F)F)c2C1)c1ccc(Cl)cc1 (single isomer, unassigned) [Example 1, N-[4-(1-{1-(4-chlorophenyl)-2-oxo-2-[4-(trifluoromethyl)-1,3-dihydro-2H-isoindol-2-yl]ethyl}butyl)benzoyl]-β-alanine]
12 | 9.05 |  | CCCC(c1ccc(C(=O)NCCC(=O)O)cc1)C(C(=O)N1CCc2cc(C(F)(F)F)ccc2C1)c1ccc(Cl)cc1 (single isomer, unassigned) [Example 80]
13 | 9.22 |  | CCCC(c1ccc(C(=O)NCCC(=O)O)cc1)C(C(=O)N1Cc2ccc(-c3ccc(OC)nc3)cc2C1)c1ccc(Cl)cc1 (stereo not shown) [Example 41]
14 | 9.00 |  | CCCC(c1ccc(C(=O)NCCC(=O)O)cc1)C(C(=O)N1CCc2cc(-c3ccc(Cl)cc3)ccc2C1)c1ccc(Cl)cc1 (single isomer, unassigned) [Example 69]
15 | 10.00 |  | CCCC(c1ccc(C(=O)NCCC(=O)O)cc1)C(C(=O)N1Cc2cccc(C)c2C1)c1ccc(Cl)cc1 (single isomer, unassigned) [Example 49]
16 | 9.22 |  | CCCC(c1ccc(C(=O)NCCC(=O)O)cc1)C(C(=O)N1Cc2cc(Cl)cc(Cl)c2C1)c1ccc(Cl)cc1 (single isomer, unassigned) [Example 55]
17 | 9.70 |  | CCCC(c1ccc(C(=O)NCCC(=O)O)cc1)C(C(=O)N1CCc2cc(-c3ccc(C)cc3)ccc21)c1ccc(Cl)cc1 (stereo not shown) [Example 63]
18 | 8.01 |  | CCCC(c1ccc(C(=O)NCCC(=O)O)cc1)C(C(=O)N1CCc2ccc(F)cc2C1)c1ccc(Cl)cc1 (single isomer, unassigned) [Example 93]
19 | 8.70 |  | CCCC(c1ccc(C(=O)NCCC(=O)O)cc1)C(C(=O)N1Cc2ccc(-c3cc(OC)ccn3)cc2C1)c1ccc(Cl)cc1 (stereo not shown) [Example 13]
20 | 9.22 |  | CCCC(c1ccc(C(=O)NCCC(=O)O)cc1)C(C(=O)N1Cc2ccc(-c3ccnc(C)c3)cc2C1)c1ccc(Cl)cc1 (stereo not shown) [Example 30]
21 | 9.40 |  | CCCC(c1ccc(C(=O)NCCC(=O)O)cc1)C(C(=O)N1CCc2cc(C)ccc2C1)c1ccc(Cl)cc1 (single isomer, unassigned) [Example 82]
22 | 9.40 |  | CCCC(c1ccc(C(=O)NCCC(=O)O)cc1)C(C(=O)N1Cc2ccc(-c3ccc(OC)nc3)cc2C1)c1ccc(C(F)(F)F)cc1 (stereo not shown) [Example 8]
23 | 8.00 |  | CCCC(c1ccc(C(=O)NCCC(=O)O)cc1)C(C(=O)N1CCc2ccccc21)c1ccc(Cl)cc1 (racemic) [Example 3, N-(4-{1-[1-(4-chlorophenyl)-2-(2,3-dihydro-1H-indol-1-yl)-2-oxoethyl]butyl}benzoyl)-β-alanine]
24 | 8.80 |  | CCCC(c1ccc(C(=O)NCCC(=O)O)cc1)C(C(=O)N1CCc2cc(-c3ccc(C)cc3)ccc2C1)c1ccc(Cl)cc1 (single isomer, unassigned) [Example 70]
25 | 8.96 |  | CCCC(c1ccc(C(=O)NCC(O)C(=O)O)cc1)C(C(=O)N1Cc2ccc(OC(F)(F)F)cc2C1)c1ccc(Cl)cc1 (mixture of isomers) [Example 99]
26 | 9.30 |  | CCCC(c1ccc(C(=O)NCCC(=O)O)cc1)C(C(=O)N1Cc2ccc(-c3cccnc3OC)cc2C1)c1ccc(Cl)cc1 (single isomer, unassigned) [Example 4, N-[4-(1-{1-(4-chlorophenyl)-2-[5-(2-methoxypyridin-3-yl)-1,3-dihydro-2H-isoindol2-yl]-2-oxoethyl}butyl)benzoyl]-β-alanine]
27 | 9.40 |  | CCCC(c1ccc(C(=O)NCCC(=O)O)cc1)C(C(=O)N1Cc2ccc(C(F)(F)F)cc2C1)c1ccc(C(F)(F)F)cc1 (stereo not shown) [Example 6]
